Data on 13 compounds can be found in PubChem BioAssay AID256 (DTP/NCI, 2004).

“And” between values parts separate entries of the source, which are not always exact repeats. Equal entries are not always repeated. Inconclusive results and toxic doses are left out.

This assay has as its system CD2F1 mice, L1210 leukemia ip, survival T/C. In words: NCI In Vivo Anticancer Drug Screen. Data for tumor model L1210 Leukemia (intraperitoneal) in CD2F1 (CDF1) mice. The conditions noted are these: higher = longer survival. The gist of the method: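 Antitumor effect is scored in animals hosting a serially transplanted tumor. Values compare compound-dosed animals against vehicle-only controls as a simple quotient.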

Setting [1] is: endpoint: mean survival time, dose: 25.0 mg/kg/injection, schedule: Q01DX009 (ip), vehicle: saline with Tween-80.
The mark [2] stands for this setting: endpoint: mean survival time, dose: 50.0 mg/kg/injection, schedule: Q01DX009 (ip), vehicle: saline with Tween-80.
Setting [3] is: endpoint: mean survival time, dose: 100.0 mg/kg/injection, schedule: Q01DX009 (ip), vehicle: saline with Tween-80.
[4] abbreviates: endpoint: mean survival time, dose: 12.5 mg/kg/injection, schedule: Q01DX005 (ip), vehicle: water.
The mark [5] stands for this setting: endpoint: mean survival time, dose: 25.0 mg/kg/injection, schedule: Q01DX005 (ip), vehicle: water.
[6] abbreviates: endpoint: mean survival time, dose: 100.0 mg/kg/injection, schedule: Q04DX003 (ip), vehicle: saline with Tween-80.
Setting [7] is: endpoint: mean survival time, dose: 25.0 mg/kg/injection, schedule: Q01DX009 (ip), vehicle: Klucel (hydroxypropylcellulose) (HPC).

Regarding `CN(C)c1nc(N(C)C)nc(N(C)C)n1`, the T/C (endpoint: mean survival time, dose: 12.5 mg/kg/injection, schedule: Q01DX009 (ip), vehicle: saline with Tween-80) is 93 % of control and 103 % of control; the T/C (endpoint: mean survival time, dose: 20.0 mg/kg/injection, schedule: Q01DX009 (ip), vehicle: Klucel (hydroxypropylcellulose) (HPC)) is 106 % of control; the T/C under setting [1] was 97 % of control and 102 % of control; the T/C (endpoint: mean survival time, dose: 40.0 mg/kg/injection, schedule: Q01DX009 (ip), vehicle: Klucel (hydroxypropylcellulose) (HPC)) was 102 % of control; the T/C (endpoint: mean survival time, dose: 50.0 mg/kg/injection, schedule: Q01DX001 (ip), vehicle: saline with Tween-80) is 96 % of control; the T/C under setting [2] was 97 % of control and 100 % of control. For the same compound, the T/C was 106 % of control (endpoint: mean survival time, dose: 80.0 mg/kg/injection, schedule: Q01DX009 (ip), vehicle: Klucel (hydroxypropylcellulose) (HPC)); 104 % of control (endpoint: mean survival time, dose: 100.0 mg/kg/injection, schedule: Q01DX001 (ip), vehicle: saline with Tween-80); 96 % of control and 97 % of control under setting [3]; 100 % of control (endpoint: mean survival time, dose: 160.0 mg/kg/injection, schedule: Q01DX009 (ip), vehicle: Klucel (hydroxypropylcellulose) (HPC)); 97 % of control (endpoint: mean survival time, dose: 200.0 mg/kg/injection, schedule: Q01DX001 (ip), vehicle: saline with Tween-80); 100 % of control and 103 % of control (endpoint: mean survival time, dose: 200.0 mg/kg/injection, schedule: Q01DX009 (ip), vehicle: saline with Tween-80). The T/C (endpoint: mean survival time, dose: 400.0 mg/kg/injection, schedule: Q01DX001 (ip), vehicle: saline with Tween-80) is 104 % of control; the T/C (endpoint: median survival time, dose: 8.0 mg/kg/injection, schedule: Q03HX024 (ip), vehicle: Klucel (hydroxypropylcellulose) (HPC)) is 97 % of control; the T/C (endpoint: median survival time, dose: 16.0 mg/kg/injection, schedule: Q03HX008 (ip), vehicle: Klucel (hydroxypropylcellulose) (HPC)) was 96 % of control; the T/C (endpoint: median survival time, dose: 16.0 mg/kg/injection, schedule: Q03HX016 (ip), vehicle: Klucel (hydroxypropylcellulose) (HPC)) was 96 % of control; the T/C (endpoint: median survival time, dose: 16.0 mg/kg/injection, schedule: Q03HX024 (ip), vehicle: Klucel (hydroxypropylcellulose) (HPC)) was 104 % of control; the T/C (endpoint: median survival time, dose: 32.0 mg/kg/injection, schedule: Q01DX009 (ip), vehicle: Klucel (hydroxypropylcellulose) (HPC)) was 108 % of control. Further, the T/C was 100 % of control (endpoint: median survival time, dose: 32.0 mg/kg/injection, schedule: Q03HX008 (ip), vehicle: Klucel (hydroxypropylcellulose) (HPC)); 100 % of control (endpoint: median survival time, dose: 32.0 mg/kg/injection, schedule: Q03HX016 (ip), vehicle: Klucel (hydroxypropylcellulose) (HPC)); 111 % of control (endpoint: median survival time, dose: 32.0 mg/kg/injection, schedule: Q03HX024 (ip), vehicle: Klucel (hydroxypropylcellulose) (HPC)); 107 % of control (endpoint: median survival time, dose: 64.0 mg/kg/injection, schedule: Q01DX009 (ip), vehicle: Klucel (hydroxypropylcellulose) (HPC)); 98 % of control (endpoint: median survival time, dose: 64.0 mg/kg/injection, schedule: Q04DX003 (ip), vehicle: Klucel (hydroxypropylcellulose) (HPC)); 97 % of control (endpoint: median survival time, dose: 128.0 mg/kg/injection, schedule: Q01DX001 (ip), vehicle: Klucel (hydroxypropylcellulose) (HPC)). Moreover, the T/C is 102 % of control (endpoint: median survival time, dose: 128.0 mg/kg/injection, schedule: Q01DX009 (ip), vehicle: Klucel (hydroxypropylcellulose) (HPC)); 109 % of control (endpoint: median survival time, dose: 128.0 mg/kg/injection, schedule: Q04DX003 (ip), vehicle: Klucel (hydroxypropylcellulose) (HPC)); 98 % of control (endpoint: median survival time, dose: 128.0 mg/kg/injection, schedule: Q08DX002 (ip), vehicle: Klucel (hydroxypropylcellulose) (HPC)); 98 % of control (endpoint: median survival time, dose: 256.0 mg/kg/injection, schedule: Q01DX001 (ip), vehicle: Klucel (hydroxypropylcellulose) (HPC)); 114 % of control (endpoint: median survival time, dose: 256.0 mg/kg/injection, schedule: Q04DX003 (ip), vehicle: Klucel (hydroxypropylcellulose) (HPC)); 98 % of control (endpoint: median survival time, dose: 256.0 mg/kg/injection, schedule: Q08DX002 (ip), vehicle: Klucel (hydroxypropylcellulose) (HPC)).
As for `O=C1C=C(C2OC(CI)C(O)C2O)C(=O)N1` (stereo not given), the T/C by setting is: under setting [4], 109 % of control; under setting [5], 107 % of control.
As for `Clc1nnc(-c2ccccc2)c(-c2ccccc2)n1`, the T/C (endpoint: mean survival time, dose: 100.0 mg/kg/injection, schedule: Q04DX003 (ip), vehicle: saline) is 91 % of control.
`N#CSCN1C(=O)C2CC=CCC2C1=O` (stereo not given): the T/C is, setting by setting: (endpoint: mean survival time, dose: 6.25 mg/kg/injection, schedule: Q04DX003 (ip), vehicle: saline with Tween-80) 103 % of control; (endpoint: mean survival time, dose: 12.5 mg/kg/injection, schedule: Q04DX003 (ip), vehicle: saline with Tween-80) 101 % of control.
With `NC(=O)NNc1ccc([N+](=O)[O-])cc1[N+](=O)[O-]`, the T/C reads like this: (endpoint: mean survival time, dose: 25.0 mg/kg/injection, schedule: Q04DX003 (ip), vehicle: saline with Tween-80) 93 % of control; (endpoint: mean survival time, dose: 50.0 mg/kg/injection, schedule: Q04DX003 (ip), vehicle: saline with Tween-80) 89 % of control; under setting [6], 97 % of control.
Consider `Cn1c(=O)[nH]c(=O)c2cc(Cl)ccc21`, for which the T/C is 101 % of control (endpoint: mean survival time, dose: 100.0 mg/kg/injection, schedule: Q04DX002 (ip), vehicle: saline with Tween-80); 106 % of control (endpoint: mean survival time, dose: 200.0 mg/kg/injection, schedule: Q04DX002 (ip), vehicle: saline with Tween-80); 121 % of control (endpoint: mean survival time, dose: 400.0 mg/kg/injection, schedule: Q04DX002 (ip), vehicle: saline with Tween-80).
Consider `NC(=O)c1ncn(C2OC(CO)C(O)C2O)c1O` (stereo not given), for which the T/C by setting is: (endpoint: mean survival time, dose: 12.5 mg/kg/injection, schedule: Q01DX009 (ip), vehicle: Klucel (hydroxypropylcellulose) (HPC)) 122 % of control; under setting [7], 113 % of control and 120 % of control; (endpoint: mean survival time, dose: 200.0 mg/kg/injection, schedule: Q01DX009 (ip), vehicle: Klucel (hydroxypropylcellulose) (HPC)) 116 % of control and 106 % of control; (endpoint: mean survival time, dose: 400.0 mg/kg/injection, schedule: Q01DX009 (ip), vehicle: Klucel (hydroxypropylcellulose) (HPC)) 120 % of control and 93 % of control and 110 % of control.
As to `CC(C)c1cc(C(C)(C)C)c(O)c(C(C)(C)C)c1`, the T/C under setting [7] is 94 % of control; the T/C (endpoint: mean survival time, dose: 50.0 mg/kg/injection, schedule: Q01DX009 (ip), vehicle: Klucel (hydroxypropylcellulose) (HPC)) was 102 % of control; the T/C (endpoint: mean survival time, dose: 100.0 mg/kg/injection, schedule: Q01DX009 (ip), vehicle: Klucel (hydroxypropylcellulose) (HPC)) was 98 % of control.
Regarding `O=c1[nH]c(=O)n(C2OC(CO)C(O)C(O)C2O)cc1F` (stereo not given), the T/C is 105 % of control under setting [4]; 95 % of control under setting [5]; 101 % of control (endpoint: mean survival time, dose: 50.0 mg/kg/injection, schedule: Q01DX005 (ip), vehicle: water); 103 % of control (endpoint: mean survival time, dose: 100.0 mg/kg/injection, schedule: Q01DX005 (ip), vehicle: water); 94 % of control (endpoint: mean survival time, dose: 200.0 mg/kg/injection, schedule: Q01DX005 (ip), vehicle: water).
Consider `CC(C)OC(=O)C12Oc3ccc(-c4ccc5c(c4O)C(O)=C4C(=O)CC(C)C(O)C4(C(=O)OC(C)C)O5)c(O)c3C(O)=C1C(=O)CC(C)C2O` (stereo not given), for which the T/C is 102 % of control (endpoint: mean survival time, dose: 1.25 mg/kg/injection, schedule: Q01DX009 (ip), vehicle: saline with Tween-80); 95 % of control (endpoint: mean survival time, dose: 2.5 mg/kg/injection, schedule: Q01DX009 (ip), vehicle: saline with Tween-80); 98 % of control (endpoint: mean survival time, dose: 5.0 mg/kg/injection, schedule: Q01DX009 (ip), vehicle: saline with Tween-80).
In the case of `C/C(=N\NC(=S)N1CC2CCC(CC2)C1)c1nccs1`, the T/C by setting is: (endpoint: median survival time, dose: 3.13 mg/kg/injection, schedule: Q01DX009 (ip), vehicle: saline with Tween-80) 103 % of control; (endpoint: median survival time, dose: 6.25 mg/kg/injection, schedule: Q01DX009 (ip), vehicle: saline with Tween-80) 112 % of control; (endpoint: median survival time, dose: 12.5 mg/kg/injection, schedule: Q01DX009 (ip), vehicle: saline with Tween-80) 113 % of control and 114 % of control and 110 % of control; (endpoint: median survival time, dose: 25.0 mg/kg/injection, schedule: Q01DX009 (ip), vehicle: saline with Tween-80) 115 % of control and 104 % of control; (endpoint: median survival time, dose: 50.0 mg/kg/injection, schedule: Q01DX009 (ip), vehicle: saline with Tween-80) 120 % of control and 95 % of control and 98 % of control.
For the compound `O=C(Nc1ccc(Cl)c(Cl)c1)Nc1cc(Cl)ccc1Sc1ccc(Cl)cc1S(=O)(=O)O`, the T/C under setting [1] was 100 % of control, the T/C under setting [2] was 100 % of control, the T/C under setting [3] is 105 % of control and the T/C under setting [6] is 101 % of control.
Turning to `Clc1cc(N2CC2)nc(N2CC2)n1`, the T/C is, setting by setting: (endpoint: mean survival time, dose: 0.94 mg/kg/injection, schedule: Q01DX009 (ip), vehicle: saline) 122 % of control; (endpoint: mean survival time, dose: 1.41 mg/kg/injection, schedule: Q01DX009 (ip), vehicle: saline) 150 % of control; (endpoint: mean survival time, dose: 1.6 mg/kg/injection, schedule: Q01DX009 (ip), vehicle: saline) 120 % of control; (endpoint: mean survival time, dose: 4.5 mg/kg/injection, schedule: Q01DX009 (ip), vehicle: saline) 168 % of control; (endpoint: mean survival time, dose: 7.5 mg/kg/injection, schedule: Q01DX009 (ip), vehicle: saline) 89 % of control.
